Test results reported in PubChem BioAssay (NCI).
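Protocol summary: plate cells (96-well), add compound at 5 concentrations, incubate 48 h, interpolate endpoints linearly. At the GI50, growth is halved. TGI is the concentration that stops growth completely.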

Assays:
Assay in all cases: NCI-60 cell line screen, 48 h
NCI-H226 lung = tested on: NCI-H226 lung
IGROV1 ovarian = tested on: IGROV1 ovarian
MDA-MB-435 = tested on: MDA-MB-435
DU-145 prostate = tested on: DU-145 prostate
NCI-H23 lung = tested on: NCI-H23 lung
M14 melanoma = tested on: M14 melanoma
MOLT-4 leukemia = tested on: MOLT-4 leukemia
COLO 205 colon = tested on: COLO 205 colon
NCI/ADR-RES ovarian = tested on: NCI/ADR-RES ovarian
A498 renal = tested on: A498 renal
K-562 leukemia = tested on: K-562 leukemia
HL-60(TB) leukemia = tested on: HL-60(TB) leukemia
OVCAR-3 ovarian = tested on: OVCAR-3 ovarian
SNB-75 CNS = tested on: SNB-75 CNS
UACC-257 melanoma = tested on: UACC-257 melanoma
EKVX NSCLC = tested on: EKVX NSCLC
A549 NSCLC = tested on: A549 NSCLC
NCI-H522 lung = tested on: NCI-H522 lung
MDA-MB-231 breast = tested on: MDA-MB-231 breast
OVCAR-8 ovarian = tested on: OVCAR-8 ovarian
BT-549 breast = tested on: BT-549 breast
SK-OV-3 ovarian = tested on: SK-OV-3 ovarian
SK-MEL-2 melanoma = tested on: SK-MEL-2 melanoma
SN12C renal = tested on: SN12C renal
OVCAR-5 ovarian = tested on: OVCAR-5 ovarian
HCT-15 colon = tested on: HCT-15 colon
LOX IMVI melanoma = tested on: LOX IMVI melanoma
CAKI-1 renal = tested on: CAKI-1 renal
ACHN renal = tested on: ACHN renal
786-0 renal = tested on: 786-0 renal
HOP-92 NSCLC = tested on: HOP-92 NSCLC
MCF7 breast = tested on: MCF7 breast
HS 578T breast = tested on: HS 578T breast
RPMI-8226 leukemia = tested on: RPMI-8226 leukemia
TK-10 renal = tested on: TK-10 renal
PC-3 prostate = tested on: PC-3 prostate
CCRF-CEM leukemia = tested on: CCRF-CEM leukemia
HCT-116 colon = tested on: HCT-116 colon
MALME-3M melanoma = tested on: MALME-3M melanoma
U251 CNS = tested on: U251 CNS
T-47D breast = tested on: T-47D breast
UACC-62 melanoma = tested on: UACC-62 melanoma
SK-MEL-5 melanoma = tested on: SK-MEL-5 melanoma
SK-MEL-28 melanoma = tested on: SK-MEL-28 melanoma
SF-539 CNS = tested on: SF-539 CNS
HCC-2998 colon = tested on: HCC-2998 colon
SW-620 colon = tested on: SW-620 colon
NCI-H460 lung = tested on: NCI-H460 lung
RXF 393 renal = tested on: RXF 393 renal
SR leukemia = tested on: SR leukemia
SF-268 CNS = tested on: SF-268 CNS
KM12 colon = tested on: KM12 colon
SF-295 CNS = tested on: SF-295 CNS
UO-31 renal = tested on: UO-31 renal
OVCAR-4 ovarian = tested on: OVCAR-4 ovarian
HOP-62 NSCLC = tested on: HOP-62 NSCLC
HT29 colon = tested on: HT29 colon
SNB-19 CNS = tested on: SNB-19 CNS

With `OC(c1cccc(C(F)(F)F)c1)c1cnccc1NC1CCCCCC1` (stereo unspecified) as the compound, how does the GI50 (NCI-H226 lung) read?
Its GI50 is 2.76 µM.

And the TGI (NCI-H226 lung)?
Its TGI is 16.6 µM.

And the GI50 (IGROV1 ovarian)?
The GI50 was 1.7 µM.

And the TGI (IGROV1 ovarian)?
Its TGI is 3.43 µM.

What about the GI50 (MDA-MB-435) of the same compound?
Its GI50 is 1.66 µM.

What about the TGI (MDA-MB-435) of the same compound?
The TGI was 3.13 µM.

What about the GI50 (DU-145 prostate) of the same compound?
The GI50 was 2.77 µM.

And the TGI (DU-145 prostate)?
Its TGI is 7.53 µM.

And the GI50 (NCI-H23 lung)?
The GI50 was 1.85 µM.

And the TGI (NCI-H23 lung)?
The TGI was 5.39 µM.

What about the GI50 (M14 melanoma) of the same compound?
The GI50 was 1.8 µM.

And the TGI (M14 melanoma)?
Its TGI is 3.64 µM.

What about the GI50 (MOLT-4 leukemia) of the same compound?
The GI50 was 2.3 µM.

And the TGI (MOLT-4 leukemia)?
The TGI was 6.19 µM.

And the GI50 (COLO 205 colon)?
The GI50 was 1.73 µM.

What about the TGI (COLO 205 colon) of the same compound?
The TGI was 3.37 µM.

And the GI50 (NCI/ADR-RES ovarian)?
The GI50 was 1.85 µM.

What about the TGI (NCI/ADR-RES ovarian) of the same compound?
Its TGI is 4.18 µM.

What about the GI50 (A498 renal) of the same compound?
The GI50 was 3.68 µM.

And the TGI (A498 renal)?
Its TGI is 15.9 µM.

And the GI50 (K-562 leukemia)?
The GI50 was 1.57 µM.

What about the TGI (K-562 leukemia) of the same compound?
The TGI was 4.51 µM.

What about the GI50 (HL-60(TB) leukemia) of the same compound?
The GI50 was 2.13 µM.

And the TGI (HL-60(TB) leukemia)?
Its TGI is 4.47 µM.

And the GI50 (OVCAR-3 ovarian)?
The GI50 was 2.35 µM.

What about the TGI (OVCAR-3 ovarian) of the same compound?
The TGI was 6.23 µM.

What about the GI50 (SNB-75 CNS) of the same compound?
The GI50 was 1.77 µM.

What about the TGI (SNB-75 CNS) of the same compound?
Its TGI is 8.25 µM.

And the GI50 (UACC-257 melanoma)?
Its GI50 is 2.36 µM.

What about the TGI (UACC-257 melanoma) of the same compound?
Its TGI is 4.66 µM.

And the GI50 (EKVX NSCLC)?
Its GI50 is 1.98 µM.

And the TGI (EKVX NSCLC)?
Its TGI is 4.68 µM.

What about the GI50 (A549 NSCLC) of the same compound?
The GI50 was 3.58 µM.

And the TGI (A549 NSCLC)?
The TGI was 11.4 µM.

What about the GI50 (NCI-H522 lung) of the same compound?
Its GI50 is 1.65 µM.

What about the TGI (NCI-H522 lung) of the same compound?
The TGI was 3.56 µM.

What about the GI50 (MDA-MB-231 breast) of the same compound?
The GI50 was 1.64 µM.

What about the TGI (MDA-MB-231 breast) of the same compound?
Its TGI is 3.22 µM.

And the GI50 (OVCAR-8 ovarian)?
The GI50 was 2.1 µM.

And the TGI (OVCAR-8 ovarian)?
The TGI was 4.59 µM.

What about the GI50 (BT-549 breast) of the same compound?
Its GI50 is 2.13 µM.

What about the TGI (BT-549 breast) of the same compound?
The TGI was 5.47 µM.

And the GI50 (SK-OV-3 ovarian)?
The GI50 was 7 µM.

And the TGI (SK-OV-3 ovarian)?
The TGI was 20 µM.

What about the GI50 (SK-MEL-2 melanoma) of the same compound?
Its GI50 is 1.71 µM.

What about the TGI (SK-MEL-2 melanoma) of the same compound?
The TGI was 3.34 µM.

What about the GI50 (SN12C renal) of the same compound?
The GI50 was 1.87 µM.

And the TGI (SN12C renal)?
Its TGI is 4.08 µM.

And the GI50 (OVCAR-5 ovarian)?
Its GI50 is 1.7 µM.

And the TGI (OVCAR-5 ovarian)?
Its TGI is 3.76 µM.

And the GI50 (HCT-15 colon)?
The GI50 was 1.81 µM.

What about the TGI (HCT-15 colon) of the same compound?
The TGI was 3.54 µM.

What about the GI50 (LOX IMVI melanoma) of the same compound?
Its GI50 is 1.59 µM.

What about the TGI (LOX IMVI melanoma) of the same compound?
Its TGI is 2.98 µM.

What about the GI50 (CAKI-1 renal) of the same compound?
Its GI50 is 1.55 µM.

And the TGI (CAKI-1 renal)?
The TGI was 3.85 µM.

And the GI50 (ACHN renal)?
Its GI50 is 1.69 µM.

And the TGI (ACHN renal)?
Its TGI is 3.24 µM.

And the GI50 (786-0 renal)?
Its GI50 is 1.62 µM.

What about the TGI (786-0 renal) of the same compound?
Its TGI is 3.08 µM.

What about the GI50 (HOP-92 NSCLC) of the same compound?
Its GI50 is 1.32 µM.

What about the TGI (HOP-92 NSCLC) of the same compound?
Its TGI is 3.88 µM.

What about the GI50 (MCF7 breast) of the same compound?
Its GI50 is 1.66 µM.

What about the TGI (MCF7 breast) of the same compound?
Its TGI is 3.51 µM.

And the GI50 (HS 578T breast)?
Its GI50 is 2.04 µM.

And the TGI (HS 578T breast)?
Its TGI is 5.57 µM.

What about the GI50 (RPMI-8226 leukemia) of the same compound?
The GI50 was 1.67 µM.

What about the TGI (RPMI-8226 leukemia) of the same compound?
The TGI was 4.11 µM.

And the GI50 (TK-10 renal)?
The GI50 was 1.74 µM.

What about the TGI (TK-10 renal) of the same compound?
Its TGI is 3.24 µM.

What about the GI50 (PC-3 prostate) of the same compound?
Its GI50 is 1.53 µM.

What about the TGI (PC-3 prostate) of the same compound?
The TGI was 4.65 µM.

What about the GI50 (CCRF-CEM leukemia) of the same compound?
Its GI50 is 2.56 µM.

What about the TGI (CCRF-CEM leukemia) of the same compound?
Its TGI is 7.98 µM.

And the GI50 (HCT-116 colon)?
The GI50 was 1.65 µM.

What about the TGI (HCT-116 colon) of the same compound?
Its TGI is 3.18 µM.

And the GI50 (MALME-3M melanoma)?
The GI50 was 1.51 µM.

What about the TGI (MALME-3M melanoma) of the same compound?
Its TGI is 2.94 µM.

And the GI50 (U251 CNS)?
Its GI50 is 1.83 µM.

And the TGI (U251 CNS)?
The TGI was 3.43 µM.

What about the GI50 (T-47D breast) of the same compound?
Its GI50 is 1.79 µM.

And the TGI (T-47D breast)?
The TGI was 4.82 µM.

What about the GI50 (UACC-62 melanoma) of the same compound?
Its GI50 is 1.5 µM.

What about the TGI (UACC-62 melanoma) of the same compound?
The TGI was 3.06 µM.

What about the GI50 (SK-MEL-5 melanoma) of the same compound?
Its GI50 is 1.61 µM.

And the TGI (SK-MEL-5 melanoma)?
The TGI was 3.04 µM.

What about the GI50 (SK-MEL-28 melanoma) of the same compound?
Its GI50 is 1.73 µM.

What about the TGI (SK-MEL-28 melanoma) of the same compound?
The TGI was 3.24 µM.

What about the GI50 (SF-539 CNS) of the same compound?
The GI50 was 1.71 µM.

And the TGI (SF-539 CNS)?
The TGI was 3.15 µM.

What about the GI50 (HCC-2998 colon) of the same compound?
Its GI50 is 1.74 µM.

And the TGI (HCC-2998 colon)?
Its TGI is 3.36 µM.

What about the GI50 (SW-620 colon) of the same compound?
Its GI50 is 1.72 µM.

What about the TGI (SW-620 colon) of the same compound?
Its TGI is 3.37 µM.

What about the GI50 (NCI-H460 lung) of the same compound?
Its GI50 is 1.84 µM.

What about the TGI (NCI-H460 lung) of the same compound?
The TGI was 3.57 µM.

And the GI50 (RXF 393 renal)?
The GI50 was 1.44 µM.

And the TGI (RXF 393 renal)?
The TGI was 2.89 µM.

And the GI50 (SR leukemia)?
Its GI50 is 2.2 µM.

What about the TGI (SR leukemia) of the same compound?
The TGI was 6.51 µM.

And the GI50 (SF-268 CNS)?
Its GI50 is 3.29 µM.

And the TGI (SF-268 CNS)?
The TGI was 13.8 µM.

And the GI50 (KM12 colon)?
The GI50 was 1.93 µM.

What about the TGI (KM12 colon) of the same compound?
Its TGI is 3.75 µM.

What about the GI50 (SF-295 CNS) of the same compound?
The GI50 was 1.52 µM.

And the TGI (SF-295 CNS)?
Its TGI is 3.06 µM.

What about the GI50 (UO-31 renal) of the same compound?
The GI50 was 1.35 µM.

And the TGI (UO-31 renal)?
Its TGI is 2.97 µM.

And the GI50 (OVCAR-4 ovarian)?
The GI50 was 1.83 µM.

And the TGI (OVCAR-4 ovarian)?
The TGI was 6.33 µM.

What about the GI50 (HOP-62 NSCLC) of the same compound?
The GI50 was 1.89 µM.

What about the TGI (HOP-62 NSCLC) of the same compound?
The TGI was 3.63 µM.

What about the GI50 (HT29 colon) of the same compound?
Its GI50 is 1.78 µM.

What about the TGI (HT29 colon) of the same compound?
The TGI was 3.72 µM.

And the GI50 (SNB-19 CNS)?
Its GI50 is 1.83 µM.

And the TGI (SNB-19 CNS)?
Its TGI is 4.08 µM.
